The source of these data is patent US8835458B2 (Hanmi Science Co., Ltd, priority 2010, dated 2014).

The structures appear in SMILES notation. Where a name gives a salt, the structure may show the parent alone.

The test system of series [1] is MDA-MB-231 breast cancer cell lines. Kind of series: Evaluation of inhibition on cell growth (MTS). In kind it is cell-based. The conditions noted are these: Homo sapiens, MDA-MB-231, 120 hours. As for the experimental part: (§1) MDA-MB-231 breast cancer cell lines (ATCC #HTB-26) and BxPC-3 pancreas cancer cell lines (ATCC #CRL 1687), which have been reported to express XIAP, were obtained from ATCC (American type culture collection; Rockville, Md.). MDA-MB-231 cell lines were incubated in L-15 medium supplemented with 10% FBS and 1% penicillin/streptomycin (Gibco BRL) at a T-75 cm^2 growth flask. In addition, BxPC-3 cell lines were incubated in RPMI medium supplemented with 10% FBS and 1% penicillin/streptomycin. For experiments of toxicity to normal cells, fibroblasts Hs27 (ATCC #CRL 1634) and Balb/c3t3 (ATCC #CCL 163) were used. The various cell lines were transferred into 96-well plates at a density of 3,000˜5,000 cells/100 μL, and cultured for 24 hours under conditions of 37° C., 5% CO2, 95% air, and 100% relative humidity (MDA-MB-231 cells were cultured under atmospheric conditions). The cells were treated with 10 μM˜0.1 nM of test compounds, and MDA-MB-231, BxPC-3, and normal cell lines were cultured for 120, 96, and 72 hours, respectively.
(§2) Cell viabilities of MDA-MB-231 cell lines were measured at an absorbance of 490 nm using CellTiter 96™ AQueous One Solution Cell proliferation Assay (MTS, Promega), and cell viabilities of BxPC-3 and normal cell lines were measured by fixing cells with 10% TCA (trichloroacetic acid), staining with SRB (sulforhodamine B), and measuring at 540 nm. From the values, GI50 values in which test compounds reduce the growth of cancer cells by 50% were calculated. The growth rates of cancer cells were calculated from following Equation 1 or 2. [(Ti−Tz)/(C−Tz)]×100 (for Ti>=Tz) [Equation 1] [(Ti−Tz)/Tz]×100 (for Ti<Tz) [Equation 2] In Equations 1 and 2, Tz refers to a density of untreated cells, which is an absorbance in 0% cell growth groups. C refers to a density of cells cultured by adding only medium, and Ti refers to a density of cells treated with test compounds.
(§3) GI50 value is the concentration of a test compound when the value of Equation 1 is 50, which indicates the concentration of test compound required to inhibit the cancer cells by 50%. On each measurement, test compounds were compared with a control.
(§4) The activity value of each compound (GI50 value) was shown in Table 5, and an IAP antagonist was used as a control.
(§5) In the activity measurement on MDA-MB-231 breast cancer cell lines, the values were represented as “***” for 100 nM or less, “**” for over 100 nM to below 1,000 nM, and “*” for 1,000 nM or more. In the measurement on normal cell lines, Balb/C and Hs27, the values were represented as “+++” for 10,000 nM or more, “++” for over 5,000 nM to below 10,000 nM, and “+” for 5,000 nM or less.

The nature of series [2]: Toxicity to normal cells (SRB). In kind it is cell-based, human. The conditions noted are these: human, Hs27 fibroblasts (normal cell line). As for the experimental part: as §1, §2, §3, §4, §5

For `CN[C@@H](C)C(=O)N[C@H](C(=O)N1CCC[C@H]1C(=O)Nc1cc2c(Nc3ccc4c(c3)CC(=O)N4)ncnc2cc1OC)C(C)(C)C` [Example 94, (S)-1-((S)-3,3-dimethyl-2-((S)-2-(methylamino)propanamide)butanoyl)-N-(7-methoxy-4-((2-oxoindolin-5-yl)amino)quinazolin-6-yl)pyrrolidine-2-carboxamide hydrochloride], the 50% growth inhibitory concentration (GI50) (as a rule, the concentration giving 50% growth inhibition) in series [1] was 100 to 1000 nM. In series [2], this compound came in with a GI50 at 72 h of over 10 µM.
On the same counts, the results for `CN[C@@H](C)C(=O)N[C@H](C(=O)N1CCC[C@H]1C(=O)Nc1cc2c(Nc3ccc(N4CCOCC4)c(Cl)c3)ncnc2cc1OC)C(C)(C)C` [Example 95, (S)—N-(4-((3-chloro-4-morpholinophenyl)amino)-7-methoxyquinazolin-6-yl)-1-((S)-3,3-dimethyl-2-((S)-2-(methylamino)propanamido)butanoyl)pyrrolidine-2-carboxamide] are at most 100 nM and over 10 µM.
On the same counts, the results for `CN[C@@H](C)C(=O)N[C@H](C(=O)N1CCC[C@H]1C(=O)Nc1cc2c(Nc3ccc(N4CCCCC4)c(Cl)c3)ncnc2cc1OC)C(C)(C)C` [Example 96, (S)—N-(4-((3-chloro-4-(piperidin-1-yl)phenyl)amino)-7-methoxyquinazolin-6-yl)-1-((S)-3,3-dimethyl-2-((S)-2-(methylamino)propanamido)butanoyl)pyrrolidine-2-carboxamide hydrochloride] are at most 100 nM and over 10 µM.
For `CN[C@@H](C)C(=O)N[C@H](C(=O)N1CCC[C@H]1C(=O)Nc1cc2c(Nc3ccc(N4CCN(C(C)C)CC4)c(Cl)c3)ncnc2cc1OC)C(C)(C)C` [Example 97, (S)—N-(4-((3-chloro-4-(4-isopropylpiperazin-1-yl)phenyl)amino)-7-methoxyquinazolin-6-yl)-1-((S)-3,3-dimethyl-2-((S)-2-(methylamino)propanamido)butanoyl)pyrrolidine-2-carboxamide hydrochloride] the same measures were at most 100 nM and over 10 µM.
`CCCN1CCN(c2ccc(Nc3ncnc4cc(OC)c(NC(=O)[C@@H]5CCCN5C(=O)[C@@H](NC(=O)[C@H](C)NC)C(C)(C)C)cc34)cc2Cl)CC1` [Example 98, (S)—N-(4-((3-chloro-4-(4-propyl-1-yl)phenyl)amino)-7-methoxyquinazolin-6-yl)-1-((S)-3,3-dimethyl-2-((S)-2-(methylamino)propanamido)butanoyl)pyrrolidine-2-carboxamide hydrochloride] showed a GI50 in series [1] of at most 100 nM. In series [2], the GI50 at 72 h is over 10 µM.
In turn, `CCN(CC)c1ccc(Nc2ncnc3cc(OC)c(NC(=O)[C@@H]4CCCN4C(=O)[C@@H](NC(=O)[C@H](C)NC)C(C)(C)C)cc23)cc1Cl` [Example 99, (S)—N-(4-((3-chloro-4-(diethylamino)phenyl)amino)-7-methoxyquinazolin-6-yl)-1-((S)-3,3-dimethyl-2-((S)-2-(methylamino)propanamido)butanoyl)pyrrolidine-2-carboxamide hydrochloride] had a 50% growth inhibitory concentration (GI50) in series [1] of at most 100 nM. In series [2], this compound came in with a GI50 at 72 h of over 10 µM.
On to `CN[C@@H](C)C(=O)N[C@H](C(=O)N1CCC[C@H]1C(=O)Nc1cc2c(Nc3ccc(N4CCN(CC5CC5)CC4)c(F)c3)ncnc2cc1OC)C(C)(C)C` [Example 100, hydrochloride], for which, in series [1], the GI50 was at most 100 nM. The GI50 at 72 h in series [2] was over 10 µM.
For `CN[C@@H](C)C(=O)N[C@H](C(=O)N1CCC[C@H]1C(=O)Nc1cc2c(Nc3cc(Cl)c(OCc4ccccn4)c(Cl)c3)ncnc2cc1OC)C(C)(C)C` [Example 101, (S)—N-(4-((3,5-dichloro-4-(pyridin-2-ylmethoxy)phenyl)amino)-7-methoxyquinazolin-6-yl)-1-((S)-3,3-dimethyl-2-((S)-2-(methylamino)propanamido)butanoyl)pyrrolidine-2-carboxamide hydrochloride] the same measures were at most 100 nM and over 10 µM.
With `CN[C@@H](C)C(=O)N[C@H](C(=O)N1CCC[C@H]1C(=O)Nc1cc2c(Nc3ccc(OCc4ccccn4)c(Cl)c3)ncnc2cc1OC)C(C)(C)C` [Example 102, (S)—N-(4-((3-chloro-4-(pyridin-2-ylmethoxy)phenyl)amino)-7-methoxyquinazolin-6-yl)-1-((S)-3,3-dimethyl-2-((S)-2-(methylamino)propanamido)butanoyl)pyrrolidine-2-carboxamide hydrochloride], in series [1], the 50% growth inhibitory concentration (GI50) is at most 100 nM. The same compound showed a GI50 at 72 h in series [2] of over 10 µM.
On the same counts, the results for `CN[C@@H](C)C(=O)N[C@H](C(=O)N1CCC[C@H]1C(=O)Nc1cc2c(Nc3ccc(N4CCC(N5CCCCC5)CC4)cc3)ncnc2cc1OC)C(C)(C)C` [Example 103, (S)—N-(4-((4-([1,4′-bipiperidine]-1′-yl)phenyl)amino)-7-methoxyquinazolin-6-yl)-1-((S)-3,3-dimethyl-2-((S)-2-(methylamino)propanamido)butanoyl)pyrrolidine-2-carboxamide hydrochloride] are at most 100 nM and over 10 µM.
Consider `CN[C@@H](C)C(=O)N[C@H](C(=O)N1CCC[C@H]1C(=O)Nc1cc2c(Nc3ccc(CN4CCCCC4)cc3)ncnc2cc1OC)C(C)(C)C` [Example 104, (S)-1-((S)-3,3-dimethyl-2-((S)-2-(methylamino)propanamido)butanoyl)-N-(7-methoxy-4-((4-(piperidin-1-ylmethyl)phenyl)amino)quinazolin-6-yl)pyrrolidine-2-carboxamide hydrochloride], for which the 50% growth inhibitory concentration (GI50) in series [1] is at most 100 nM. Moreover, the GI50 at 72 h in series [2] is over 10 µM.
On the same counts, the results for `CN[C@@H](C)C(=O)N[C@H](C(=O)N1CCC[C@H]1C(=O)Nc1cc2c(Nc3ccc(N4CCC(N5CCN(C)CC5)CC4)cc3)ncnc2cc1OC)C(C)(C)C` [Example 105, (S)-1-((S)-3,3-dimethyl-2-((S)-2-(methylamino)propanamido)butanoyl)-N-(7-methoxy-4-((4-(4-(4-methylpiperazin-1-yl)piperidin-1-yl)phenyl)amino)quinazolin-6-yl)pyrrolidine-2-carboxamide hydrochloride] are at most 100 nM and over 10 µM.
On the same counts, the results for `CN[C@@H](C)C(=O)N[C@H](C(=O)N1CCC[C@H]1C(=O)Nc1cc2c(Nc3ccc(C4CCN(C)CC4)cc3)ncnc2cc1OC)C(C)(C)C` [Example 106, (S)-1-((S)-3,3-dimethyl-2-((S)-2-(methylamino)propanamido)butanoyl)-N-(7-methoxy-4-((4-(1-methylpiperidin-4-yl)phenyl)amino)quinazolin-6-yl)pyrrolidine-2-carboxamide hydrochloride] are at most 100 nM and over 10 µM.
Regarding `CN[C@@H](C)C(=O)N[C@H](C(=O)N1CCC[C@H]1C(=O)Nc1cc2c(NC3CCC(N4CCC(C)CC4)CC3)ncnc2cc1OC)C(C)(C)C` (stereo partly drawn) [Example 107, (S)-1-((S)-3,3-dimethyl-2-((S)-2-(methylamino)propanamido)butanoyl)-N-(7-methoxy-4-((4-(4-methylpiperidin-1-yl)cyclohexyl)amino)quinazolin-6-yl)pyrrolidine-2-carboxamide hydrochloride], the concentration for 50% growth inhibition (GI50) in series [1] is 100 to 1000 nM. Further, in series [2], the GI50 at 72 h was over 10 µM.
In turn, `CN[C@@H](C)C(=O)N[C@H](C(=O)N1CCC[C@H]1C(=O)Nc1cc2c(Nc3ccc(S(=O)(=O)N4CCN(C)CC4)cc3)ncnc2cc1OC)C(C)(C)C` [Example 108, (S)-1-((S)-3,3-dimethyl-2-((S)-2-(methylamino)propanamido)butanoyl)-N-(7-methoxy-4-((4-((4-methylpiperazin-1-yl)sulfonyl)phenyl)amino)quinazolin-6-yl)pyrrolidine-2-carboxamide hydrochloride] returned a 50% growth inhibitory concentration (GI50) in series [1] of at most 100 nM. In series [2], the GI50 at 72 h was over 10 µM.
With `CN[C@@H](C)C(=O)N[C@H](C(=O)N1CCC[C@H]1C(=O)Nc1cc2c(Nc3ccc(C4CCCN(C)C4)cc3)ncnc2cc1OC)C(C)(C)C` (stereo partly drawn) [Example 109, (2S)-1-((S)-3,3-dimethyl-2-((S)-2-(methylamino)propanamido)butanoyl)-N-(7-methoxy-4-((4-(1-methylpiperidin-3-yl)phenyl)amino)quinazolin-6-yl)pyrrolidine-2-carboxamide hydrochloride], the concentration for 50% growth inhibition (GI50) in series [1] was at most 100 nM. The compound also displayed a GI50 at 72 h in series [2] of over 10 µM.
